Results from patent publication US20150045387A1, “Bi-Aromatic And Tri-Aromatic Compounds As NADPH Oxidase 2 (Nox2) Inhibitors” (The University of Surrey, priority 2011, published 2015).

What was measured:
[1] = system: Differentiate human neutrophils (HL-60 cells); experiment: PMA-stimulated O2.- production by differentiated human neutrophils, lucigenin-chemiluminescence; type: cell-based; details: HL-60 neutrophils, PMA 100 ng/ml for 5 min
Method: (§1) A) Differentiate human neutrophils (HL-60 cells, 5×10^4 cells/well) were stimulated with PMA (100 ng/ml) for 5 min in the presence or absence of LMH036 at the dose indicated. O2.^− production was measured by lucigenin-chemiluminescence. B) HPMEC were stimulated with TNFα (100 U/ml) for 45 min. Cells were immediately frozen in liquid nitrogen and homogenised. Cell homogenates (0.1 mg/well) were pre-incubated with LMH036 at the indicated dose for 5 min and measured for the O2.^− production in the presence of NADPH (100 μM) by lucigenin-chemiluminescence.
HL-60 is a human promyelocytic leukaemia cell line. […]
(§2) O2^− production by different cell types was measured using lucigenin (5 μM)-chemiluminescence. A microplate luminometer (LumiStar, BMG) was used, which allows the examination of 96 samples at the same time with kinetic reading facilities. […] Dark-adapted lucigenin (5 μM) was added into the well through an auto-dispenser located in the dark chamber just before reading. The light emission was recorded over a 60 minute period and expressed as arbitrary MLU measured by the illuminometer. Each experiment was performed in triplicate and the mean of 3 blank readings was subtracted from each corrected value for each reading. […]

[2] = system: HPMEC; experiment: NADPH-dependent O2.- production by homogenates of TNFα-stimulated HPMEC, lucigenin-chemiluminescence; type: cell-based, human; details: HPMEC stimulated with TNFα 100 U/ml 45 min, homogenates 0.1 mg/well, NADPH 100 μM
Method: as §1, §2
O2^− production was also studied using total cell homogenate (for the endothelial cells and the fibroblasts). […] Soluble protein concentration was determined using a kit from Bio-Rad Laboratories Ltd. (Hertfordshire, U.K.). […]

In the case of `OCc1cc(-c2ncc(-c3cccc(O)c3O)o2)ccc1O` [LMH036, 3-(2-(4-hydroxy-3-(hydroxymethyl)phenyl)oxazol-5-yl)benzene-1,2-diol], the “O2.- production by human cells” value [1] is reported as “inhibitory effect” and the “O2.- production by human cells” value [2] is reported as “inhibitory effect”.
